Assay results published in patent publication US10220091B2, “Combination treatments with sonic hedgehog inhibitors” (The General Hospital Corporation, priority 2013, dated 2019).

Tests used:
[1] = system: Colo38, Colo38R, M21, M21R and TPF-10-741 cells; assay: MTT dose titration of PDGFRα-I; assay type: cell-based; details: Homo sapiens; dose titration experiment, MTT assay, the 5 cell lines; read-out: IC50 doses
Method: MTT assay was carried out as reported elsewhere^2. […] All experiments were performed three independent times in triplicates.
A dose titration experiment established the dose of PDGFRα-I to be combined with vemurafenib in the 5 cell lines.

p-ERK = assay: Western blot of cell lysates, p-ERK; details: Colo38R, M21R and TPF-10-741 cells; vemurafenib 1 μM, sunitinib 3 μM, imatinib 20 μM
Method: A. Following an incubation at indicated time points at 37° C. cells were harvested and lysed. Cell lysates were analyzed by western blot with the indicated mAbs. β-actin-was used as a loading control. B. Following a 48 h incubation at 37° C. cells were harvested and lysed. Cell lysates were analyzed by western blot with the indicated mAbs. β-actin or Calnexin were used as a loading control. The results presented are representative of the results obtained in three independent experiments.
A. M21R and TPF-10-741 cells were transduced with PDGFRα-specific shRNA (#4) or with GFP-shRNA, used as a control, lentiviral particles. […] Following a three day incubation at 37° C. cells were harvested and lysed. Cell lysates were analyzed by western blot with the indicated mAbs. β-actin was used as a loading control. […] Cell proliferation was determined by MTT assay following a three day incubation at 37° C. Percentage of cell proliferation was calculated as the ratio of treated cells to untreated GFP-shRNA transduced cells. Data are expressed as mean±SD of the results obtained in three independent experiments. *** indicates P<0.01.
Following an incubation at indicated time points at 37° C. cells were harvested and lysed. Cell lysates were analyzed by western blot with the indicated mAbs. β-actin was used as a loading control. […]

melanoma cells = assay: Overcoming BRAF-I resistance mediated by PDGFRβ upregulation; assay type: cell-based; details: as reported and as found by the applicant

| IC50 [1] | Compound | also measured |
| --- | --- | --- |
| 1000 nM | CC1(COc2ccc3c(c2)ncn3-c2ccc3cccc(N4CCC(N)CC4)c3n2)COC1 [crenolanib] | – |
| 2000 nM | CCN(CC)CCNC(=O)c1c(C)[nH]c(/C=C2\C(=O)Nc3ccc(F)cc32)c1C [sunitinib] | – |
| – | CCCS(=O)(=O)Nc1ccc(F)c(C(=O)c2c[nH]c3ncc(-c4ccc(Cl)cc4)cc23)c1F [vemurafenib] | p-ERK levels (p-ERK): not inhibited |
| – | Cc1ccc(NC(=O)c2ccc(CN3CCN(C)CC3)cc2)cc1Nc1nccc(-c2cccnc2)n1 [imatinib] | ability to overcome BRAF-I resistance mediated by PDGFRβ upregulation (melanoma cells): not able to overcome |
